Test results taken from paper PMC8955734, “4-Arylthiosemicarbazide Derivatives as Toxoplasmic Aromatic Amino Acid Hydroxylase Inhibitors and Anti-inflammatory Agents” (International Journal of Molecular Sciences, 2022).

T1: AAH1 (toxoplasmic aromatic amino acid hydroxylase 1), catalytic domain (Toxoplasma gondii, UniProt S8G872)
T1 construct: catalytic domain, pET-45b (His-tag), expressed in E. coli BL21 GOLD (DE3) pLysS, cobalt resin
T1 sequence (S8G872 1-390 limits assumed): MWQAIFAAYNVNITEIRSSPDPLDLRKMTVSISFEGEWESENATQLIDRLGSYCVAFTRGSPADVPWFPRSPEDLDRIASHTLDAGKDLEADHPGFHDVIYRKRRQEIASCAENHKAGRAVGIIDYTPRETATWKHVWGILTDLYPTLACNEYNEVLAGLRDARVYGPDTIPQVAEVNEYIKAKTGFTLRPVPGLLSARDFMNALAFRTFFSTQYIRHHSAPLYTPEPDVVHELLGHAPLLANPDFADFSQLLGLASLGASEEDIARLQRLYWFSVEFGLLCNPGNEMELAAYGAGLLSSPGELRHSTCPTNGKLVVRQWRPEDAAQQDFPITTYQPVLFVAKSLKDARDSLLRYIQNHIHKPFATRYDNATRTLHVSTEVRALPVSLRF

T2: AAH2 (toxoplasmic aromatic amino acid hydroxylase 2), catalytic domain (Toxoplasma gondii, UniProt S8FBW5)
T2 construct: catalytic domain, pET-45b (His-tag), expressed in E. coli BL21 GOLD (DE3) pLysS, cobalt resin
T2 sequence (S8FBW5 156-565): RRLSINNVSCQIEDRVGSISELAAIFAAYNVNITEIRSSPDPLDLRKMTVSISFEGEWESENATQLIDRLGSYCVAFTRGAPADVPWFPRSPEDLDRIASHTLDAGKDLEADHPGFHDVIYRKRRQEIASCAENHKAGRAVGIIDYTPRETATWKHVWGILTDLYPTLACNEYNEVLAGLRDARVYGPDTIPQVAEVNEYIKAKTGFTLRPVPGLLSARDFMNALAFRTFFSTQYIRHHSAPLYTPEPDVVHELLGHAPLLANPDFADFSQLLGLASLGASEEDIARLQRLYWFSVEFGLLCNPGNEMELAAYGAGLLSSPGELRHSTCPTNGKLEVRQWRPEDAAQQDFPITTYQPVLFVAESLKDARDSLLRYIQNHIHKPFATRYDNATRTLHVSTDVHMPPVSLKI

B1: AAH2 (toxoplasmic aromatic amino acid hydroxylase 2), catalytic domain (Toxoplasma gondii ME49) (protein)
chain: T2 sequence (S8FBW5 156-565)
notes: catalytic domain, pET-45b (His-tag), expressed in E. coli BL21 GOLD (DE3) pLysS, cobalt resin
B2: AAH1 (toxoplasmic aromatic amino acid hydroxylase 1), catalytic domain (Toxoplasma gondii ME49) (protein)
chain: T1 sequence (S8G872 1-390 limits assumed)
notes: as for B1

How the values were obtained:
[1] = target: T1, AAH1 (toxoplasmic aromatic amino acid hydroxylase 1), catalytic domain; experiment: coupled NADH oxidation assay (dihydropteridine reductase), […] nm; fit to competitive inhibition equation; format: biochemical; details: read-out: KI ^c
[2] = target: T2, AAH2 (toxoplasmic aromatic amino acid hydroxylase 2), catalytic domain; experiment: as above; format: biochemical; details: read-out: KI ^c
[3] = target: T1, AAH1 (toxoplasmic aromatic amino acid hydroxylase 1), catalytic domain; experiment: DARTS (Pronase protection, Western blot); format: binding; details: 10 µM compound, and dose-dependent; room temperature
purified protein = substrate: N[C@@H](Cc1ccc(O)cc1)C(=O)O; experiment: purified protein; format: biochemical, Toxoplasma gondii; details: no inhibitor, 500 µM (6R)-BH4, 500 µM NADH, 10 µM ferrous ammonium sulfate, pH 7.5, 32 °C

| Molecule | Ki [1] | Ki [2] | DARTS (Pronase protection, Western blot) [3] | Km (purified protein) |
| --- | --- | --- | --- | --- |
| Cc1nc[nH]c1C(=O)NNC(=S)Nc1ccc([N+](=O)[O-])cc1 [2a] | 1490 nM | 3690 nM | Proteolysis of AAH1 by Pronase was clearly inhibited by the presence of 2a and 6a | – |
| Cc1nc[nH]c1C(=O)NNC(=S)Nc1cccc(I)c1 [6a] | 1260 nM | 3230 nM | Proteolysis of AAH1 by Pronase was clearly inhibited by the presence of 2a and 6a | – |
| B1 | – | – | – | 71 µM |
| B2 | – | – | – | 30 µM |
